Experimental data from ChEMBL document CHEMBL1144963, “Polyacylated neohesperidosides from Geranium caespitosum: bacterial multidrug resistance pump inhibitors” (2003).

How the values were obtained:
Type in all cases: functional
Priestia megaterium [1] = experiment: Antimicrobial activity against Bacillus megaterium in combination with Ciprofloxacin and 10 ug/mL of compound 4 (alone MIC= 0.8 ug/mL)
Priestia megaterium [2] = experiment: Antimicrobial activity against Bacillus megaterium in combination with Norfloxacin and 10 ug/mL of compound 4 (alone MIC= 1 ug/mL)
Priestia megaterium [3] = experiment: Antimicrobial activity against Bacillus megaterium in combination with Rhein and 10 ug/mL of compound 4 (alone MIC= 4 ug/mL)
Bacillus subtilis [4] = experiment: Antimicrobial activity against Bacillus subtilis in combination with Berberine and 10 ug/mL of compound 4 (alone MIC= 500 ug/mL)
Bacillus subtilis [5] = experiment: Antimicrobial activity against Bacillus subtilis in combination with Ciprofloxacin and 10 ug/mL of compound 4 (alone MIC= 0.8 ug/mL)
Bacillus subtilis [6] = experiment: Antimicrobial activity against Bacillus subtilis in combination with Norfloxacin and 10 ug/mL of compound 4 (alone MIC= 1 ug/mL)
Bacillus subtilis [7] = experiment: Antimicrobial activity against Bacillus subtilis in combination with Rhein and 10 ug/mL of compound 4 (alone MIC= 16 ug/mL)
Staphylococcus aureus [8] = experiment: Antimicrobial activity against NorA Staphylococcus aureus in combination with Berberine and 10 ug/mL of compound 4 (alone MIC= 64 ug/mL)
Staphylococcus aureus [9] = experiment: Antimicrobial activity against NorA Staphylococcus aureus in combination with Ciprofloxacin and 10 ug/mL of compound 4 (alone MIC= 0.2 ug/mL)
Staphylococcus aureus [10] = experiment: Antimicrobial activity against NorA Staphylococcus aureus in combination with Norfloxacin and 10 ug/mL of compound 4 (alone MIC= 0.4 ug/mL)
Staphylococcus aureus [11] = experiment: Antimicrobial activity against NorA Staphylococcus aureus in combination with Rhein and 10 ug/mL of compound 4 (alone MIC= 4 ug/mL)
Staphylococcus aureus [12] = experiment: Antimicrobial activity against Staphylococcus aureus in combination with Berberine and 10 ug/mL of compound 4 (alone MIC= 500 ug/mL)
Staphylococcus aureus [13] = experiment: Antimicrobial activity against Staphylococcus aureus in combination with Ciprofloxacin and 10 ug/mL of compound 4 (alone MIC= 0.5 ug/mL)
Staphylococcus aureus [14] = experiment: Antimicrobial activity against Staphylococcus aureus in combination with Norfloxacin and 10 ug/mL of compound 4 (alone MIC= 1 ug/mL)
Staphylococcus aureus [15] = experiment: Antimicrobial activity against Staphylococcus aureus in combination with Rhein and 10 ug/mL of compound 4 (alone MIC= 4 ug/mL)
Priestia megaterium [16] = experiment: Antimicrobial activity against Bacillus megaterium in combination with Berberine and 10 ug/mL of compound 4 (alone MIC= 125 ug/mL)

MIC (Priestia megaterium [1]): 0.1 µg/mL
MIC (Priestia megaterium [2]): 0.2 µg/mL
MIC (Priestia megaterium [3]): 1 µg/mL
MIC (Bacillus subtilis [4]): 125 µg/mL
MIC (Bacillus subtilis [5]): 0.1 µg/mL
MIC (Bacillus subtilis [6]): 0.2 µg/mL
MIC (Bacillus subtilis [7]): 4 µg/mL
MIC (Staphylococcus aureus [8]): 1.56 µg/mL
MIC (Staphylococcus aureus [9]): 0.1 µg/mL
MIC (Staphylococcus aureus [10]): 0.1 µg/mL
MIC (Staphylococcus aureus [11]): 1 µg/mL
MIC (Staphylococcus aureus [12]): 3.12 µg/mL
MIC (Staphylococcus aureus [13]): 0.1 µg/mL
MIC (Staphylococcus aureus [14]): 0.2 µg/mL
MIC (Staphylococcus aureus [15]): 1 µg/mL
MIC (Priestia megaterium [16]): 6.25 µg/mL
SMILES: CCCCOC1OC(COC(=O)C(C)C)C(OC(=O)C(C)C)C(O)[C@H]1O[C@@H]1OC(C)C(OC(=O)C(C)C)C(OC(C)=O)C1OC(=O)CCCC (stereo partly specified)
